# In patent US12679839B2, “Cyclin-dependent kinase 7 (CDK7) non-covalent inhibitors” (JANSSEN PHARMACEUTICA NV, priority 2020, dated 2026):
# Tested on: RNA polymerase II Serine 5 phosphorylation (Rpb1 CTD), downstream substrate of CDK7
# Assay: Imaging-based cellular RNA PolII Ser5 phosphorylation assay in A549 cells
# Type: cell-based, human
# Details: Homo sapiens, A549, 3 h, challenged with compound for 3 hours, read-out: pRNA polII Ser5 (A549) pIC50 (converted)
# From the text: Dosing curves were fitted using the following equation to obtain IC50: Y=Bottom+(Top−Bottom)/(1+10^((log IC50−X)*Hill slope)) where X=log10 of the compound concentration; top and bottom can be defined by PC and NC respectively. Imaging-Based Cellular RNA PolII Ser5 Phosphorylation Assay
# To evaluate inhibition of CDK7 kinase activity, a 384-well automated imaging assay was used. This assay detects Serine 5 phosphorylation on a unique heptapeptide sequence in the C-terminal domain of Rpb1 subunit of RNA polymerase II, the downstream substrate of CDK7. This heptapeptide sequence is repeated up to 52 times in the CTD of Rpb1.
# A549 adenocarcinoma human alveolar basal epithelial cells (ATCC, CCL-185), rabbit Phospho-Rpb1 CTD (Ser5) antibody (D9N51 (Cell Signaling Technology)), DMEM (Sigma), Fetal Bovine Serum (Biowest), L-glutamine (Sigma), Penicillin/Streptomycin (Life Technologies), Sodium Pyruvate (Sigma), Hepes (Sigma), poly-D-lysine coated μclear 384 black plates (Greiner), formaldehyde (PolySciences), D-PBS (Sigma), Methanol (Sigma), Alexa Fluor 488 goat anti rabbit IgG secondary antibody (Life Technologies), HCS CellMask™ Deep Red stain (Life Technologies), Hoechst 33258 (Invitrogen).
# RNA Polymerase II Serine 5 phosphorylation was detected using a specific rabbit Phospho-Rpb1 CTD (Ser5) antibody. A549 adenocarcinoma human alveolar basal epithelial cells were seeded in 20 μl medium (DMEM supplemented with 1% Fetal Bovine Serum (heat inactivated 30′ 56° C.), 2 mM L-glutamine, 50 U/ml penicillin 50 μg/ml streptomycin, 1 mM sodium pyruvate and 50 mM hepes) at 1000 cells/well and cultured in poly-D-lysine coated μclear 384 black plates for 20 hours at 37° C. and 5% CO2.
# After incubation cells were challenged with compound for 3 hours at 37° C. and 5% CO2. DMSO was used as high control and as low control 10 μM of LDC4297 reference compound was used. 40 nl of test compounds and controls were spotted in cell plates using Echo Liquid Handler (Echo 550, Labcyte). Incubation was followed by 20 minutes fixation with 20 μl 10% formaldehyde at room temperature. Medium/formaldehyde solution was removed, plates were washed 3 times with 30 μl D-PBS (w/o Ca^2+ and Ma^2+) and permeabilization was done by adding 20 μl ice cold methanol for 20 minutes. Cells were washed again 3 times with 30 μl D-PBS and 20 μl blocking buffer (25 ml fetal bovine serum in 500 ml D-PBS) was added for 1 hour.
# After removing blocking buffer 20 μl 1/1000 primary antibody rabbit. Phospho-Rpb1 CTD (Ser5) antibody was added which binds to the phosphorylated Serine5 of the heptapeptide sequences in the CTD of Rpb1. Primary antibody was removed, and plates were washed 3 times with 30 μl D-PBS followed by addition of 20 μl 1/2000 Alexa Fluor 488 goat anti rabbit IgG secondary antibody for final detection of Phospho-Rpb1 CTD (Ser5) together with 1/5000 HCS CellMask™ Deep Red stain for membrane staining and 1/5000 Hoechst 33258 for nucleus staining. Last, plates were washed 2 times with 30 μl D-PBS and wells were filled with 40 μL D-PBS, plates were sealed (Thermowell sealing tape) and stored at 4° C. until reading. Plates were read with Opera Phenix (Perkin Elmer) with 10× air objective. Data were calculated and analyzed in Phaedra.
# IC50 values were calculated using the following formula:
# Average value of all HC's and all LC's are used for normalizations. % Effect=100−(sample−LC)/(HC−LC)×100% Control=(sample/HC)×100
# A best-fit curve is fitted by a minimum sum of squares method to the plot of % Control vs. compound concentration. From this an IC50 value can be obtained. An estimate of the slope of the plot in terms of the Hill coefficient is also obtained.
row,Structure (SMILES),IC50 [nM]
1,C[C@@H]1Cc2cnc(N[C@H]3CCOC4(CCCC4)C3)nc2CN1C(=O)[C@H]1CCN(C)C[C@@H]1c1ccccc1 (relative stereo) [Compound 16],40.7
2,C[C@@H]1Cc2cnc(N[C@H]3COc4ccccc43)nc2CN1C(=O)[C@H]1CCN(C)C[C@@H]1c1ccccc1 (relative stereo) [Compound 17],363
3,C[C@@H]1Cc2cnc(N[C@@H]3COc4ccccc43)nc2CN1C(=O)[C@H]1CCN(C)C[C@@H]1c1ccccc1 (relative stereo) [Compound 18],490
4,[2H]C([2H])([2H])c1cccc([C@@H]2CN(C)CC[C@H]2C(=O)N2Cc3nc(NCc4ccn(C)n4)ncc3C[C@H]2C)c1 (relative stereo) [Compound 99],603
5,[2H]C([2H])([2H])c1cccc([C@H]2CN(C)CC[C@@H]2C(=O)N2Cc3nc(NCc4ccn(C)n4)ncc3C[C@H]2C)c1 (relative stereo) [Compound 100],~26.3
6,C[C@@H]1Cc2cnc(NCc3ccn(C)n3)nc2CN1C(=O)[C@H]1CCN(C)C[C@@H]1c1cccc(C2CC2)c1 (relative stereo) [Compound 121],< 2.45
7,C[C@@H]1Cc2cnc(NCc3ccn(C)n3)nc2CN1C(=O)[C@@H]1CCN(C)C[C@H]1c1cccc(C(F)F)c1 (relative stereo) [Compound 123],2400
8,C[C@@H]1Cc2cnc(NCc3ccn(C)n3)nc2CN1C(=O)[C@H]1CCN(C)C[C@@H]1c1cccc(C(F)F)c1 (relative stereo) [Compound 124],~44.7
9,CC(C)Oc1cccc([C@@H]2CN(C)CC[C@H]2C(=O)N2Cc3nc(NCc4ccn(C)n4)ncc3C[C@H]2C)c1 (relative stereo) [Compound 138a],> 10000
10,CC(C)Oc1cccc([C@H]2CN(C)CC[C@@H]2C(=O)N2Cc3nc(NCc4ccn(C)n4)ncc3C[C@H]2C)c1 (relative stereo) [Compound 138b],182
11,C[C@@H]1CN(C)CC[C@H]1C(=O)N1Cc2nc(NCc3ccn(C)n3)ncc2C[C@H]1C (relative stereo) [Compound 147],813
12,"CC(C)N1CC[C@H](C(=O)N2Cc3nc(NC4CCOCC4)ncc3C[C@H]2C)[C@@H](c2ccccc2)C1 (single isomer, unassigned) [Compound 157]",178
13,"CCN1CC[C@H](C(=O)N2Cc3nc(NC4CCOCC4)ncc3C[C@H]2C)[C@@H](c2ccccc2)C1 (single isomer, unassigned) [Compound 158]",77.6
14,"C[C@@H]1Cc2cnc(NC3CCOCC3)nc2CN1C(=O)[C@H]1CCN(C2COC2)C[C@@H]1c1ccccc1 (single isomer, unassigned) [Compound 159]",> 10000
15,"[2H]C([2H])([2H])N1CC[C@@H](C(=O)N2Cc3cc(NCc4ccn(C)n4)ncc3C[C@@H]2C)[C@H](c2ccccc2)C1 (single isomer, unassigned) [Compound 178]",3720
16,"Cc1cccc([C@@H]2CN(C)CC[C@H]2C(=O)N2Cc3cc(Nc4cnn(C)c4)ncc3C[C@@H]2C)c1 (single isomer, unassigned) [Compound 179]",~83.2
17,"CO[C@H]1CC[C@H](Nc2ncc3c(n2)CN(C(=O)[C@H]2CCN(C)C[C@@H]2c2ccccc2)C(C)(C)C3)CC1 (single isomer, unassigned) [Compound 190]",240
18,CCO[C@H]1CC[C@H](Nc2ncc3c(n2)CN(C(=O)[C@H]2CCN(C)C[C@@H]2c2ccccc2)[C@H](C)C3)CC1 [Compound 19],41.7
19,C[C@@H]1Cc2cnc(Nc3ccnc(C4CC4)c3)nc2CN1C(=O)[C@H]1CCN(C)C[C@@H]1c1ccccc1 [Compound 76],~33.1
20,C[C@@H]1Cc2cnc(Nc3cnn(CC4CC4)c3)nc2CN1C(=O)[C@H]1CCN(C)C[C@@H]1c1ccccc1 [Compound 80],18.6
21,Cc1nn(C)c(C)c1Nc1ncc2c(n1)CN(C(=O)[C@H]1CCN(C)C[C@@H]1c1ccccc1)[C@H](C)C2 [Compound 81],1350
22,C[C@@H]1Cc2cnc(Nc3cn(C)nc3C(F)(F)F)nc2CN1C(=O)[C@H]1CCN(C)C[C@@H]1c1ccccc1 [Compound 84],1120
23,C[C@@H]1Cc2cnc(Nc3cnn(CC(F)F)c3)nc2CN1C(=O)[C@H]1CCN(C)C[C@@H]1c1ccccc1 [Compound 85],~30.9
24,Cc1nn(C)cc1Nc1ncc2c(n1)CN(C(=O)[C@H]1CCN(C)C[C@@H]1c1ccccc1)[C@H](C)C2 [Compound 86],447
25,Cc1c(Nc2ncc3c(n2)CN(C(=O)[C@H]2CCN(C)C[C@@H]2c2ccccc2)[C@H](C)C3)cnn1C [Compound 87],661
26,C[C@@H]1Cc2cnc(Nc3cnn(C4CCCC4)c3)nc2CN1C(=O)[C@H]1CCN(C)C[C@@H]1c1ccccc1 [Compound 88],28.8
27,Cc1cccc([C@H]2CN(C)CC[C@@H]2C(=O)N2Cc3nc(Nc4ccnc(C)c4)ncc3C[C@H]2C)c1 [Compound 135],~20.4
28,C[C@H]1Cc2cnc(NC3CCOCC3)nc2[C@H](C)N1C(=O)[C@H]1CCN(C)C[C@@H]1c1ccccc1 [Compound 196],776
29,CN1CC[C@H](C(=O)N2Cc3nc(NCc4ccn(C)n4)ncc3[C@@H]3C[C@@H]32)[C@@H](c2ccccc2)C1 [Compound 198],234

# Same assay, conditions: challenged with compound for 3 hours
row,Structure (SMILES),pRNA polII Ser5 (A549) pIC50
1,[2H]C([2H])([2H])c1cccc([C@@H]2CN(C)CC[C@H]2C(=O)N2Cc3nc(Nc4cnn(C)c4)ncc3C[C@H]2C)c1 (relative stereo) [Compound 97],6.23
2,[2H]C([2H])([2H])c1cccc([C@@H]2CN(C)CC[C@H]2C(=O)N2Cc3nc(Nc4cnn(C)c4)ncc3C[C@H]2C)c1 (relative stereo) [Compound 98],~7.6
